Measurements as given in ChEMBL document CHEMBL1201862, “PubChem BioAssay data set” (2004).
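Where inhibition never reached the appropriate level, the endpoint shown equals the highest concentration tested. Otherwise, values were interpolated linearly from a five-concentration, 48-hour dose response in 96-well plates. Abbreviation: GI50, concentration required for 50% inhibition of growth.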 The source made the active and inactive calls. Rule as the data show it: active = GI50 up to about 1.1 µM and inactive = higher.

Assays:
Test in all cases: NCI anticancer screen, dose series, 48 h
786-0 = system: 786-0
A549 = system: A549
ACHN = system: ACHN
CAKI-1 = system: CAKI-1
CCRF-CEM = system: CCRF-CEM
COLO 205 = system: COLO 205
DLD-1 = system: DLD-1
DMS-114 = system: DMS-114
DMS-273 = system: DMS-273
EKVX = system: EKVX
HCC 2998 = system: HCC 2998
HCT-116 = system: HCT-116
HCT-15 = system: HCT-15
HL-60 = system: HL-60
HOP-62 = system: HOP-62
HOP-92 = system: HOP-92
HT-29 = system: HT-29
IGROV-1 = system: IGROV-1
K562 = system: K562
KM-20L2 = system: KM-20L2
KM12 = system: KM12
LOX IMVI = system: LOX IMVI
LXFL 529 = system: LXFL 529
M14 = system: M14
M19-MEL = system: M19-MEL
Malme-3M = system: Malme-3M
NCI-H226 = system: NCI-H226
NCI-H23 = system: NCI-H23
NCI-H460 = system: NCI-H460
NCI-H522 = system: NCI-H522
OVCAR-3 = system: OVCAR-3
OVCAR-4 = system: OVCAR-4
OVCAR-5 = system: OVCAR-5
OVCAR-8 = system: OVCAR-8
RPMI-8226 = system: RPMI-8226
RXF 393 = system: RXF 393
SF-268 = system: SF-268
SF-295 = system: SF-295
SF-539 = system: SF-539
SK-MEL-28 = system: SK-MEL-28
SK-MEL-2 = system: SK-MEL-2
SK-MEL-5 = system: SK-MEL-5
SK-OV-3 = system: SK-OV-3
SN12C = system: SN12C
SNB-19 = system: SNB-19
SNB-75 = system: SNB-75
SNB-78 = system: SNB-78
SW-620 = system: SW-620
TK-10 = system: TK-10
U-251 = system: U-251
UACC-62 = system: UACC-62
UO-31 = system: UO-31
XF498 = system: XF498
A498 = system: A498
BT-549 = system: BT-549
DU-145 = system: DU-145
Hs-578T = system: Hs-578T
MCF7 = system: MCF7
MDA-MB-231 = system: MDA-MB-231
MDA-MB-435 = system: MDA-MB-435
MDA-N = system: MDA-N
MOLT-4 = system: MOLT-4
NCI/ADR-RES = system: NCI/ADR-RES
PC-3 = system: PC-3
SR = system: SR
T47D = system: T47D
UACC-257 = system: UACC-257

Compound: c1ccc(CCCC2Sc3cccc4cccc(c34)S2)cc1
- GI50 (786-0): > 100 µM (inactive)
- GI50 (A549): > 100 µM (inactive)
- GI50 (ACHN): > 100 µM (inactive)
- GI50 (CAKI-1): > 100 µM (inactive)
- GI50 (CCRF-CEM): > 100 µM (inactive)
- GI50 (COLO 205): > 100 µM (inactive)
- GI50 (DLD-1): > 100 µM (inactive)
- GI50 (DMS-114): > 100 µM (inactive)
- GI50 (DMS-273): > 100 µM (inactive)
- GI50 (EKVX): > 100 µM (inactive)
- GI50 (HCC 2998): 88.7 µM (inactive)
- GI50 (HCT-116): > 100 µM (inactive)
- GI50 (HCT-15): > 100 µM
- GI50 (HL-60): 64.6 µM (inactive)
- GI50 (HOP-62): > 100 µM (inactive)
- GI50 (HOP-92): > 100 µM (inactive)
- GI50 (HT-29): 78.9 µM (inactive)
- GI50 (IGROV-1): > 100 µM (inactive)
- GI50 (K562): > 100 µM (inactive)
- GI50 (KM-20L2): 54.7 µM (inactive)
- GI50 (KM12): > 100 µM (inactive)
- GI50 (LOX IMVI): > 100 µM (inactive)
- GI50 (LXFL 529): > 100 µM (inactive)
- GI50 (M14): > 100 µM (inactive)
- GI50 (M19-MEL): 79.1 µM (inactive)
- GI50 (Malme-3M): 78.3 µM (inactive)
- GI50 (NCI-H226): 88.3 µM (inactive)
- GI50 (NCI-H23): > 100 µM (inactive)
- GI50 (NCI-H460): > 100 µM (inactive)
- GI50 (NCI-H522): 92.7 µM (inactive)
- GI50 (OVCAR-3): > 100 µM (inactive)
- GI50 (OVCAR-4): > 100 µM (inactive)
- GI50 (OVCAR-5): > 100 µM (inactive)
- GI50 (OVCAR-8): > 100 µM (inactive)
- GI50 (RPMI-8226): 52.7 µM (inactive)
- GI50 (RXF 393): > 100 µM (inactive)
- GI50 (SF-268): > 100 µM (inactive)
- GI50 (SF-295): > 100 µM (inactive)
- GI50 (SF-539): > 100 µM (inactive)
- GI50 (SK-MEL-28): > 100 µM (inactive)
- GI50 (SK-MEL-2): > 100 µM (inactive)
- GI50 (SK-MEL-5): 78.3 µM (inactive)
- GI50 (SK-OV-3): > 100 µM (inactive)
- GI50 (SN12C): > 100 µM (inactive)
- GI50 (SNB-19): > 100 µM (inactive)
- GI50 (SNB-75): > 100 µM (inactive)
- GI50 (SNB-78): > 100 µM (inactive)
- GI50 (SW-620): > 100 µM (inactive)
- GI50 (TK-10): > 100 µM (inactive)
- GI50 (U-251): > 100 µM (inactive)
- GI50 (UACC-62): > 100 µM (inactive)
- GI50 (UO-31): > 100 µM (inactive)
- GI50 (XF498): > 100 µM (inactive)

Compound: COC1C(O)=C2C(=O)O/C(C)=C/C=C/C=C/C=C\CC(c3ccccc3)NC(=O)\C=C/C=C\C=C\C=C\[C@@]2(C)[C@@H]1O (stereo partly specified)
- GI50 (786-0): 0.017 µM (active)
- GI50 (A498): 12.9 nM (active)
- GI50 (A549): < 0.01 µM (active)
- GI50 (ACHN): < 0.01 µM (active)
- GI50 (BT-549): < 10 nM (active)
- GI50 (CAKI-1): < 0.0203 µM (active)
- GI50 (CCRF-CEM): < 0.01 µM (active)
- GI50 (COLO 205): 0.0104 µM (active)
- GI50 (DLD-1): < 0.01 µM (active)
- GI50 (DMS-114): 0.0249 µM (active)
- GI50 (DU-145): 11.7 nM (active)
- GI50 (EKVX): 0.0357 µM (active)
- GI50 (HCT-116): < 0.01 µM (active)
- GI50 (HCT-15): < 0.01 µM
- GI50 (HL-60): < 0.01 µM (active)
- GI50 (HOP-62): < 0.0334 µM (active)
- GI50 (HOP-92): < 0.01 µM (active)
- GI50 (HT-29): < 0.01 µM (active)
- GI50 (Hs-578T): < 10 nM (active)
- GI50 (IGROV-1): < 0.0211 µM (active)
- GI50 (K562): < 0.01 µM (active)
- GI50 (KM-20L2): < 0.01 µM (active)
- GI50 (KM12): < 0.0146 µM (active)
- GI50 (LOX IMVI): 0.0176 µM (active)
- GI50 (M14): < 0.0371 µM (active)
- GI50 (M19-MEL): 0.0538 µM (active)
- GI50 (MCF7): < 10 nM (active)
- GI50 (MDA-MB-231): < 10 nM (active)
- GI50 (MDA-MB-435): < 10 nM (active)
- GI50 (MDA-N): 33 nM (active)
- GI50 (MOLT-4): < 18.1 nM (active)
- GI50 (Malme-3M): < 0.0223 µM (active)
- GI50 (NCI-H226): 0.0175 µM (active)
- GI50 (NCI-H23): 0.0144 µM (active)
- GI50 (NCI-H460): < 0.01 µM (active)
- GI50 (NCI-H522): < 0.01 µM (active)
- GI50 (NCI/ADR-RES): < 10 nM (active)
- GI50 (OVCAR-3): < 0.0189 µM (active)
- GI50 (OVCAR-4): 0.0444 µM (active)
- GI50 (OVCAR-5): 0.0234 µM (active)
- GI50 (OVCAR-8): 0.0157 µM (active)
- GI50 (PC-3): < 10 nM (active)
- GI50 (RPMI-8226): < 0.01 µM (active)
- GI50 (RXF 393): 0.0128 µM (active)
- GI50 (SF-268): < 0.028 µM (active)
- GI50 (SF-295): < 0.01 µM (active)
- GI50 (SF-539): < 0.01 µM (active)
- GI50 (SK-MEL-28): 0.0155 µM (active)
- GI50 (SK-MEL-2): < 0.0218 µM (active)
- GI50 (SK-MEL-5): 0.0395 µM (active)
- GI50 (SK-OV-3): < 0.021 µM (active)
- GI50 (SN12C): 0.0986 µM (active)
- GI50 (SNB-19): < 0.01 µM (active)
- GI50 (SNB-75): < 0.01 µM (active)
- GI50 (SR): < 12.5 nM (active)
- GI50 (SW-620): < 0.01 µM (active)
- GI50 (T47D): 23.9 nM (active)
- GI50 (TK-10): < 0.0361 µM (active)
- GI50 (U-251): < 0.01 µM (active)
- GI50 (UACC-257): < 12.9 nM (active)
- GI50 (UACC-62): 0.0675 µM (active)
- GI50 (UO-31): < 0.0161 µM (active)
- GI50 (XF498): 0.0213 µM (active)
